Experimental data from PubChem BioAssay (NCI).
Several values for one entry are separate records, joined by “and”; a condition that tells them apart may be missing. Identical values can stand only once.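 Following 48 hours of exposure in 96-well plates, responses at five concentrations were used to interpolate endpoints linearly. GI50: concentration for 50% inhibition of growth. At the TGI there is no net growth.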

How the values were obtained:
Assay in all cases: DTP human tumour cell line panel, 48 h
CAKI-1 renal = system: CAKI-1 renal
HT29 colon = system: HT29 colon
HOP-62 NSCLC = system: HOP-62 NSCLC
DU-145 prostate = system: DU-145 prostate
BT-549 breast = system: BT-549 breast
PC-3 prostate = system: PC-3 prostate
TK-10 renal = system: TK-10 renal
NCI-H226 lung = system: NCI-H226 lung
KM12 colon = system: KM12 colon
EKVX NSCLC = system: EKVX NSCLC

Compound | GI50 (CAKI-1 renal) [µM] | TGI (CAKI-1 renal) [µM] | GI50 (HT29 colon) | TGI (HT29 colon) | GI50 (HOP-62 NSCLC) | TGI (HOP-62 NSCLC) | GI50 (DU-145 prostate) [µM] | TGI (DU-145 prostate) | GI50 (BT-549 breast) | TGI (BT-549 breast) | GI50 (PC-3 prostate) | TGI (PC-3 prostate) | GI50 (TK-10 renal) | TGI (TK-10 renal) | GI50 (NCI-H226 lung) | TGI (NCI-H226 lung) | GI50 (KM12 colon) | TGI (KM12 colon) | TGI (EKVX NSCLC) | GI50 (EKVX NSCLC) [µM]
COc1cc(C(=O)O/N=C(\N)Cc2cccc3ccccc23)cc(OC)c1OC | 5.91 | 19.5 | 15.7 µM | 38.3 µM | 4.42 µM | 18.7 µM | 11.4 | 23.7 µM | 14.6 µM | 29.7 µM | 6.02 µM | 20.6 µM | 20.7 µM | 35.2 µM | 16.9 µM | 42.5 µM | 9.12 µM | 22.1 µM | – | –
O=S1c2ccccc2NC(c2ccc3ccccc3c2)CC1c1ccccc1 (stereo not given) | – | 79 | – | 49.6 µM | – | > 100 µM | – | – | – | – | – | – | – | > 100 µM | – | 48.9 µM | – | 41.7 µM | 63.9 µM | –
CN(C)CCNC(=O)c1c2ccccc2cc2ccccc12 | – | – | – | > 100 µM | – | > 100 µM | – | – | – | – | – | – | – | > 100 µM | – | 48.5 µM | – | > 100 µM | > 100 µM | –
c1ccc2cc(C[n+]3ccn(Cc4ccc5ccccc5n4)c3)ccc2c1 | – | – | 0.366 µM and 2.55 µM | 3.01 µM and 14.3 µM | 1.4 µM and 5.05 µM | 7.02 µM and 20.3 µM | – | 12.4 µM and 22.4 µM | 0.347 µM and 2.54 µM | 1.51 µM and 8.46 µM | 0.342 µM and 2.39 µM | 3.18 µM and 13.9 µM | 1.71 µM and 10.4 µM | 6.47 µM and 23.8 µM | 1.06 µM and 4.51 µM | 4.87 µM and 21.6 µM | 0.384 µM and 2.25 µM | 1.74 µM and 7.56 µM | 7.34 µM and 31.4 µM | –
O=C1CC(c2ccsc2)c2snc(-c3ccc(Cl)cc3)c2N1 (stereo not given) | 1.03 | > 100 | 0.4 µM | > 100 µM | 2.63 µM | 35.2 µM | 2.68 | > 100 µM | 2.26 µM | > 100 µM | 2.05 µM | > 100 µM | – | – | 7.55 µM | > 100 µM | 0.385 µM | > 100 µM | – | –
COc1ccc(N=Nc2c(-c3ccccc3)nn(C(=O)CC(=O)Nc3ccccc3Cl)c2-c2ccccc2)cc1 | – | > 100 | – | > 100 µM | – | > 100 µM | – | – | – | – | – | – | – | > 100 µM | – | > 100 µM | – | > 100 µM | > 100 µM | –
CN1C(=O)CCC1c1ccc2c(c1)oc(=O)n2C (stereo not given) | – | > 100 | – | > 100 µM | – | > 100 µM | – | – | – | – | – | – | – | > 100 µM | – | > 100 µM | – | > 100 µM | > 100 µM | –
O=c1ccn(C2(CO)C=C(CO)C(O)C2O)c(=O)[nH]1 (stereo not given) | – | > 25.7 | – | – | – | > 25.7 µM | – | – | – | – | – | – | – | > 25.7 µM | – | > 25.7 µM | – | > 25.7 µM | > 25.7 µM | –
Cc1ccc(/C=C/C(=O)c2ccc([N+](=O)[O-])cc2)cc1 | – | > 100 | – | > 100 µM | – | > 100 µM | – | – | – | – | – | – | – | > 100 µM | – | > 100 µM | – | > 100 µM | > 100 µM | –
CCSc1ccc([C@@H]2[C@@H](N)C(=O)N2c2cc(OC)c(OC)c(OC)c2)cc1 | – | – | 0.0333 µM | 18 µM | 0.06 µM | > 100 µM | 0.188 | > 100 µM | 0.0592 µM | > 100 µM | 0.0773 µM | > 100 µM | 30.6 µM | > 100 µM | 79 µM | > 100 µM | 0.0533 µM | > 100 µM | > 100 µM | 0.638
ClC1c2ccccc2C2(c3ccccc3)OOC1(c1ccccc1)O2 (stereo not given) | – | 6.19 | – | 3.69 µM | – | 22.9 µM | – | – | – | – | – | – | – | 4.4 µM | – | 4.08 µM | – | 3.63 µM | 4.62 µM | –
CC(C)CN1CC(C)C(=O)NC1=O (stereo not given) | – | > 100 | – | > 100 µM | – | > 100 µM | – | – | – | – | – | – | – | > 100 µM | – | > 100 µM | – | > 100 µM | > 100 µM | –
CCOc1cc2c(=O)oc3c(OC)ccc4ccc(c1OC)c2c43 | – | > 100 | – | > 100 µM | – | > 100 µM | – | > 100 µM | – | – | – | > 100 µM | – | > 100 µM | – | > 100 µM | – | > 100 µM | > 100 µM | –
N#Cc1cc([N+](=O)[O-])ccc1NC(=O)C(=O)C(C(=O)c1ccc2ccccc2c1)C1OCc2ccccc21 (stereo not given) | – | > 50.3 | – | 32.5 µM | – | 15.6 µM | – | – | – | – | – | – | – | 45.8 µM | – | 4.46 µM | – | 30.4 µM | 37.4 µM | –
CN(C)C(=S)/N=c1\ss/c(=N\C(=S)N(C)C)n1Cc1ccco1 | – | > 100 | – | – | – | > 100 µM | – | – | – | – | – | – | – | > 100 µM | – | > 100 µM | – | > 100 µM | – | –
CCOC(=O)c1ccccc1SC(C[N+](=O)[O-])c1ccccc1 (stereo not given) | 14.8 | 31.2 | 2.55 µM | 5.72 µM | 16.9 µM | 32.1 µM | 5.91 | 18.4 µM | 2.31 µM | 5.53 µM | 4.4 µM | 16.6 µM | 5.91 µM | 18.8 µM | 16.1 µM | 44.5 µM | 3.21 µM | 10.4 µM | – | –
COc1ccc(-c2nc(-c3ccccn3)c(-c3ccccn3)n2CC(C)C)cc1OC1CCCC1 | 7.44 | 90.2 | 35.3 µM | 134 µM | 15.3 µM | > 165 µM | 23.3 | > 165 µM | 50 µM | > 165 µM | 11.1 µM | 83.8 µM | – | – | 21.3 µM | > 165 µM | 11.1 µM | > 165 µM | – | –
COc1ccc(OC(C)C(=O)O)c2c1CCCC2=O (stereo not given) | – | – | – | > 100 µM | – | > 100 µM | – | – | – | – | – | – | – | > 100 µM | – | > 100 µM | – | > 100 µM | > 100 µM | –
Cc1cn([C@H]2C[C@H](O)[C@@H](CO)O2)c(=O)nc1N | – | > 100 | – | > 100 µM | – | > 100 µM | – | > 100 µM | – | > 100 µM | – | > 100 µM | – | > 100 µM | – | > 100 µM | – | > 100 µM | – | –
O=C1NC(=O)[C@@H](c2c[nH]c3ccccc23)[C@@H]1c1c[nH]c2ccccc12 | > 25 | > 25 | > 25 µM | > 25 µM | > 25 µM | > 25 µM | > 25 | > 25 µM | > 25 µM | > 25 µM | > 25 µM | > 25 µM | > 25 µM | > 25 µM | > 25 µM | > 25 µM | > 25 µM | > 25 µM | – | –
